Source: patent EP3509566B1, “COMPOUNDS FOR REDUCING CELLULAR MELANIN CONTENT” (Unilever N.V., priority 2016, dated 2018)
Like-named read-outs stand apart in the source and are kept apart here.

Assays:
[1] = Cell viability assay (calcein method); assay type: cell-based, human; conditions: human, epidermal melanocytes
Description: (§1) A set of indolyl compounds were purchased from SIGMA-ALDRICH as stocks of 10 mM in 100% DMSO. They were initially examined at 25 uM concentration in cell culture (Table 1) for their ability to reduce melanin content and then, at different doses (Table 2). Neonatal foreskin primary human epidermal melanocytes was sourced from Cascade Biologicals (labelled passage P0). Melanocytes were maintained in Medium 254CF (Cascade Cat. # M-254CF-500) supplemented with human melanocyte growth supplement (Cascade; Cat. # S-002-5), hereafter referred to as MGM. Cells were maintained at 37 °C in a humidified incubator with 5 % CO2 atmosphere. 50,000 cells were seeded in 24 well plate in MGM. After 24 hours, the cultures were treated with various concentrations of test materials and were left undisturbed for a further period of 72 hours. Comparative vehicle controls of 0.25 % (v/v) DMSO were also set up in parallel, simultaneously. At the end of the incubation period, the cell viability was determined using the calcein method. Briefly, cell culture spent media was removed and cells washed once with 0.4 ml of 1x PBS-Ca-Mg solution. […] Plates were covered with aluminium foil and incubated for 30 minutes at 37 °C in the regular CO2 incubator. […] Percentage Melanin content was calculated as the ratio between OD405nm value of any sample to that of DMSO reference sample.

[2] = tested on: Neonatal foreskin primary human epidermal melanocytes; experiment: Cell viability assay (calcein method); assay type: cell-based; conditions: 72 hours
Description: as §1

[3] = tested on: Neonatal foreskin primary human epidermal melanocytes; experiment: Melanin content assay (OD405nm of cell lysate); assay type: cell-based
Description: A set of indolyl compounds were purchased from SIGMA-ALDRICH as stocks of 10 mM in 100% DMSO. They were initially examined at 25 uM concentration in cell culture (Table 1) for their ability to reduce melanin content and then, at different doses (Table 2). Neonatal foreskin primary human epidermal melanocytes was sourced from Cascade Biologicals (labelled passage P0). Melanocytes were maintained in Medium 254CF (Cascade Cat. # M-254CF-500) supplemented with human melanocyte growth supplement (Cascade; Cat. # S-002-5), hereafter referred to as MGM. Cells were maintained at 37 °C in a humidified incubator with 5 % CO2 atmosphere. 50,000 cells were seeded in 24 well plate in MGM. After 24 hours, the cultures were treated with various concentrations of test materials and were left undisturbed for a further period of 72 hours. Comparative vehicle controls of 0.25 % (v/v) DMSO were also set up in parallel, simultaneously. At the end of the incubation period, the cell viability was determined using the calcein method. […] Cells were lysed by resuspension and incubation (60 °C/one hour.). Then this lysate was transferred to a fresh 384-well plate and measured OD405nm in a TECAN M1000 plate reader (estimate of relative melanin content). […] Percentage Melanin content was calculated as the ratio between OD405nm value of any sample to that of DMSO reference sample.

[4] = 3.125 µM, 72 hours, Table 2, fresh batch
[5] = 6.25 µM, 72 hours, Table 2, fresh batch
[6] = 12.5 µM, 72 hours, Table 2, fresh batch
[7] = 25 µM, 72 hours, Table 1, 100 = 0.25% DMSO, read-out: % Viability
[8] = 50 µM, 72 hours, Table 2, fresh batch
[9] = 25 µM, 72 hours, Table 2, fresh batch
[10] = Homo sapiens, Melanocyte, 72 h, 25 µM, 72 hours, Table 1, normalized melanin content, read-out: 100* (%Melanin/% Viability)
[11] = Homo sapiens, Melanocyte, 72 h, 25 µM, 72 hours, Table 1, read-out: % reduction in Melanin
[12] = Homo sapiens, Melanocyte, 72 h, 25 µM, 72 hours, Table 1, relative to DMSO, read-out: % Melanin
[13] = Homo sapiens, Melanocyte, 72 h, 25 µM, 72 hours, Table 2, fresh batch, read-out: 100* (% Melanin/%Viability)
[14] = Homo sapiens, Melanocyte, 72 h, 25 µM, 72 hours, Table 2, fresh batch, read-out: % Melanin
[15] = Homo sapiens, Melanocyte, 72 h, 25 µM, 72 hours, Table 2, fresh batch, read-out: % reduction in Melanin

With `CC(Cc1c[nH]c2ccccc12)NC(=O)OCCCl` (stereo not shown) [Compound #1, 2-chloroethyl [2-(1H-indol-3-yl)-1-methylethyl] carbamate] as the molecule, how does the viability at 72 h, 3.125 µM [1, 4] read?
The viability at 72 h, 3.125 µM was 94%.

What about the viability at 72 h, 6.25 µM [1, 5] of the same molecule?
Its viability at 72 h, 6.25 µM is 96.6%.

What about the viability at 72 h, 12.5 µM [1, 6] of the same molecule?
Its viability at 72 h, 12.5 µM is 93.4%.

What about the viability at 72 h, 25 µM [1, 7] of the same molecule?
Its viability at 72 h, 25 µM is 95%.

And the viability at 72 h, 25 µM ([1]; 25 µM, 72 hours, Table 2, fresh batch, read-out: % Viability)?
The viability at 72 h, 25 µM was 93.7%.

And the viability at 72 h, 50 µM [1, 8]?
The viability at 72 h, 50 µM was 88.3%.

What about the “Calcein Fluorescence” value ([2]; 3.125 µM, Table 2, fresh batch) of the same molecule?
Its value is 94 arbitrary units.

And the “Calcein Fluorescence” value ([2]; 6.25 µM, Table 2, fresh batch)?
The value was 96.6 arbitrary units.

And the “Calcein Fluorescence” value ([2]; 12.5 µM, Table 2, fresh batch)?
Its value is 93.4 arbitrary units.

What about the “Calcein Fluorescence” value ([2]; 25 µM, Table 1) of the same molecule?
Its value is 95 arbitrary unit.

And the “Calcein Fluorescence” value ([2]; 25 µM, Table 2, fresh batch of melanocytes)?
The value was 93.7 arbitrary units.

What about the “Calcein Fluorescence” value ([2]; 50 µM, Table 2, fresh batch) of the same molecule?
Its value is 88.3 arbitrary units.

And the “% reduction in Melanin” value [3, 4]?
Its value is “Nil”.

What about the “OD405nm (Melanin)” value [3, 4] of the same molecule?
Its value is 0.168.

And the “OD405nm (Melanin)” value [3, 5]?
Its value is 0.146.

And the “OD405nm (Melanin)” value [3, 6]?
The value was 0.134.

What about the “OD405nm (Melanin)” value ([3]; 25 µM, 72 hours, Table 1) of the same molecule?
The value was 0.093.

And the “OD405nm (Melanin)” value [3, 9]?
The value was 0.122.

And the “melanin reduction (in words)” value ([3]; 25 µM, Table 1)?
Its value is “significant melanin reduction”.

And the “OD405nm (Melanin)” value [3, 8]?
The value was 0.103.

What about the activity at 3.125 µM ([3]; Homo sapiens, Melanocyte, 72 h, 3.125 µM, 72 hours, Table 2, fresh batch, read-out: 100* (% Melanin/%Viability)) of the same molecule?
The activity at 3.125 µM was 102%.

And the activity at 3.125 µM ([3]; Homo sapiens, Melanocyte, 72 h, 3.125 µM, 72 hours, Table 2, fresh batch, read-out: % Melanin)?
The activity at 3.125 µM was 96%.

And the activity at 6.25 µM ([3]; Homo sapiens, Melanocyte, 72 h, 6.25 µM, 72 hours, Table 2, fresh batch, read-out: 100* (% Melanin/%Viability))?
Its activity at 6.25 µM is 85.9%.

What about the activity at 6.25 µM ([3]; Homo sapiens, Melanocyte, 72 h, 6.25 µM, 72 hours, Table 2, fresh batch, read-out: % Melanin) of the same molecule?
The activity at 6.25 µM was 83%.

And the inhibition at 6.25 µM ([3]; Homo sapiens, Melanocyte, 72 h, 6.25 µM, 72 hours, Table 2, fresh batch, read-out: % reduction in Melanin)?
The inhibition at 6.25 µM was 14.1%.

And the activity at 12.5 µM ([3]; Homo sapiens, Melanocyte, 72 h, 12.5 µM, 72 hours, Table 2, fresh batch, read-out: 100* (% Melanin/%Viability))?
Its activity at 12.5 µM is 82.4%.

And the activity at 12.5 µM ([3]; Homo sapiens, Melanocyte, 72 h, 12.5 µM, 72 hours, Table 2, fresh batch, read-out: % Melanin)?
Its activity at 12.5 µM is 77%.

And the inhibition at 12.5 µM ([3]; Homo sapiens, Melanocyte, 72 h, 12.5 µM, 72 hours, Table 2, fresh batch, read-out: % reduction in Melanin)?
The inhibition at 12.5 µM was 17.6%.

What about the activity at 25 µM [3, 10] of the same molecule?
Its activity at 25 µM is 87%.

And the inhibition at 25 µM [3, 11]?
Its inhibition at 25 µM is 13%.

What about the activity at 25 µM [3, 12] of the same molecule?
The activity at 25 µM was 83%.

What about the activity at 25 µM [3, 13] of the same molecule?
Its activity at 25 µM is 74.7%.

What about the activity at 25 µM [3, 14] of the same molecule?
Its activity at 25 µM is 70%.

And the inhibition at 25 µM [3, 15]?
The inhibition at 25 µM was 25.3%.

What about the activity at 50 µM ([3]; Homo sapiens, Melanocyte, 72 h, 50 µM, 72 hours, Table 2, fresh batch, read-out: 100* (% Melanin/%Viability)) of the same molecule?
Its activity at 50 µM is 66.8%.

What about the activity at 50 µM ([3]; Homo sapiens, Melanocyte, 72 h, 50 µM, 72 hours, Table 2, fresh batch, read-out: % Melanin) of the same molecule?
Its activity at 50 µM is 59%.

And the inhibition at 50 µM ([3]; Homo sapiens, Melanocyte, 72 h, 50 µM, 72 hours, Table 2, fresh batch, read-out: % reduction in Melanin)?
Its inhibition at 50 µM is 33.2%.

And the “efficacy compared to Kojic acid (in words)” value ([3]; various doses, Table 2)?
Its value is “more efficacious at concentrations much lower than Kojic acid”.

With `CC(=O)NC(C)Cc1c[nH]c2ccccc12` (stereo not shown) [Compound #2, N-[2-(1H-indol-3-yl)-1-methylethyl]acetamide, reference compound] as the molecule, how does the viability at 72 h, 25 µM [1, 7] read?
Its viability at 72 h, 25 µM is 98%.

And the “Calcein Fluorescence” value ([2]; 25 µM, Table 1)?
The value was 98 arbitrary unit.

And the “OD405nm (Melanin)” value ([3]; 25 µM, 72 hours, Table 1)?
Its value is 0.108.

What about the “melanin reduction (in words)” value ([3]; 25 µM, Table 1) of the same molecule?
The value was “comparatively insignificant”.

And the activity at 25 µM [3, 10]?
The activity at 25 µM was 98%.

And the inhibition at 25 µM [3, 11]?
Its inhibition at 25 µM is 2%.

And the activity at 25 µM [3, 12]?
The activity at 25 µM was 96%.

Which viability at 72 h, 25 µM [1, 7] does the source give for `CC(=O)O.CC(Cc1c[nH]c2ccccc12)NC(=O)CN` (stereo not shown) [Compound #3, 2-amino-N-[2-(1H-indol-3-yl)-1-methylethyl]acetamide acetate] here?
The viability at 72 h, 25 µM was 111%.

And the “Calcein Fluorescence” value ([2]; 25 µM, Table 1)?
The value was 111 arbitrary unit.

And the “OD405nm (Melanin)” value ([3]; 25 µM, 72 hours, Table 1)?
Its value is 0.111.

What about the “melanin reduction (in words)” value ([3]; 25 µM, Table 1) of the same molecule?
The value was “significant melanin reduction”.

What about the activity at 25 µM [3, 10] of the same molecule?
Its activity at 25 µM is 89%.

And the inhibition at 25 µM [3, 11]?
The inhibition at 25 µM was 11%.

And the activity at 25 µM [3, 12]?
Its activity at 25 µM is 99%.

For `O=c1cc(CO)occ1O` [Kojic acid, reference compound], which viability at 72 h, 25 µM ([1]; % Viability) is on record?
The viability at 72 h, 25 µM was 102%.

And the viability at 72 h, 250 µM ([1]; % Viability)?
Its viability at 72 h, 250 µM is 96%.

What about the viability at 72 h, 500 µM ([1]; % Viability) of the same molecule?
The viability at 72 h, 500 µM was 96%.

And the “OD405nm (Melanin)” value [3, 9]?
The value was 0.177.

And the “OD405nm (Melanin)” value ([3]; 250 µM, 72 hours, Table 2, fresh batch)?
The value was 0.152.

What about the “OD405nm (Melanin)” value ([3]; 500 µM, 72 hours, Table 2, fresh batch) of the same molecule?
The value was 0.139.

What about the activity at 25 µM [3, 13] of the same molecule?
The activity at 25 µM was 99.3%.

And the activity at 25 µM [3, 14]?
The activity at 25 µM was 101%.

And the inhibition at 25 µM [3, 15]?
The inhibition at 25 µM was 0.7%.

What about the activity at 250 µM ([3]; Homo sapiens, Melanocyte, 72 h, 250 µM, 72 hours, Table 2, fresh batch, read-out: 100* (% Melanin/%Viability)) of the same molecule?
Its activity at 250 µM is 90.4%.

What about the activity at 250 µM ([3]; Homo sapiens, Melanocyte, 72 h, 250 µM, 72 hours, Table 2, fresh batch, read-out: % Melanin) of the same molecule?
Its activity at 250 µM is 87%.

And the inhibition at 250 µM ([3]; Homo sapiens, Melanocyte, 72 h, 250 µM, 72 hours, Table 2, fresh batch, read-out: % reduction in Melanin)?
The inhibition at 250 µM was 9.6%.

And the activity at 500 µM ([3]; Homo sapiens, Melanocyte, 72 h, 500 µM, 72 hours, Table 2, fresh batch, read-out: 100* (% Melanin/%Viability))?
Its activity at 500 µM is 83.3%.

What about the activity at 500 µM ([3]; Homo sapiens, Melanocyte, 72 h, 500 µM, 72 hours, Table 2, fresh batch, read-out: % Melanin) of the same molecule?
The activity at 500 µM was 80%.

What about the inhibition at 500 µM ([3]; Homo sapiens, Melanocyte, 72 h, 500 µM, 72 hours, Table 2, fresh batch, read-out: % reduction in Melanin) of the same molecule?
The inhibition at 500 µM was 16.7%.
